Reference: patent US10179769B2, “Histone demethylase inhibitors” (CELGENE QUANTICEL RESEARCH, INC., priority 2012, dated 2019)
pIC50: −log10 of the molar value.

target: JMJD2C (Homo sapiens (Human), UniProt Q9H3R0); assay: JMJD2C TR-FRET enzyme inhibition assay; assay type: biochemical; details: H3K9me3-biotin peptide
Text: This assay determines the ability of a test compound to inhibit Jarid1A, Jarid1B, and JMJD2C demethylase activity. Baculovirus expressed Jarid1A (GenBank Accession #NM_001042603, AA1-1090) was purchased from BPS Bioscience (Cat#50110). Baculovirus expressed Jarid1B (GenBank Accession #NM_006618, AA 2-751) was purchased from BPS Bioscience (Cat #50121) or custom made by MolecularThroughput. Baculovirus-expressed JMJD2C (GenBank Accession #BC143571, AA 2-372) was purchased from BPS Bioscience (Cat#50105).
The ability of test compounds to inhibit the activity of JMJD2C was determined in 384-well plate format under the following reaction conditions: 0.3 nM JMJD2C, 300 nM H3K9me3-biotin labeled peptide (Anaspec cat #64360), 2 μM alpha-ketoglutaric acid in assay buffer of 50 mM HEPES, pH7.3, 0.005% Brij35, 0.5 mM TCEP, 0.2 mg/ml BSA, 50 μM sodium L-ascorbate, and 2 μM ammonium iron(II) sulfate. Reaction product was determined quantitatively by TR-FRET after the addition of detection reagent Phycolink Streptavidin-allophycocyanin (Prozyme) and Europium-anti-di-methylated histone H3 lysine 9 (H3K9me2) antibody (PerkinElmer) in the presence of 5 mM EDTA in LANCE detection buffer (PerkinElmer) at a final concentration of 50 nM and 1 nM, respectively.
The reaction mixture was incubated at room temperature for 30 min, and terminated by the addition of 6 μl of 5 mM EDTA in LANCE detection buffer containing 100 nM Phycolink Streptavidin-allophycocyanin and 2 nM Europium-anti-H3K9me2 antibody. Plates were read by EnVisionMultilabel Reader in TR-FRET mode (excitation at 320 nm, emission at 615 nm and 665 nm) after 1 hr incubation at rt. A ratio was calculated (665/615) for each well and fitted to determine inhibition constant (IC50).

Chain of JMJD2C (Q9H3R0 2-372): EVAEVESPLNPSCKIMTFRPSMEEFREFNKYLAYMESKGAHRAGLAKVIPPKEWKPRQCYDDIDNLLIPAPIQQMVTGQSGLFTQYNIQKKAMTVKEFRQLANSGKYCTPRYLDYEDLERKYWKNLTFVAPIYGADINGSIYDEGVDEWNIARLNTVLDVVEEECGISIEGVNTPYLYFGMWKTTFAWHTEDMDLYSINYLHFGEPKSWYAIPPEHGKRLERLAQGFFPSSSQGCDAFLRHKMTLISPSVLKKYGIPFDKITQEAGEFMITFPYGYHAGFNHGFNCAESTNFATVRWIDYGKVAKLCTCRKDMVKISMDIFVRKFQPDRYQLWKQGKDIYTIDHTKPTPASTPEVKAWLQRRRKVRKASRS

Row | Substance | pIC50
1 | 3-{[(6-chloro-1,2,3,4-tetrahydronaphthalen- 1-yl)methyl]-amino}pyridine-4- carboxylic acid [Example 68] | 6.00 to 7.00
2 | 3-{[(6-chloro-1-hydroxy-1,2,3,4- tetrahydronaphthalen-1-yl)methyl]amino} pyridine-4-carboxylic acid [Example 67] | 6.00 to 7.00
3 | 3-{[(7-fluoro-3,4-dihydro-2H-chromen-4- yl)methyl]-amino}pyridine-4-carboxylic acid [Example 65] | > 7.00
